Target: T1, recombinant murine Aurora A enzyme (Mus musculus, UniProt P97477)
T1 construct: hexahistidine (His6) (N); made in house; host or cells: insect cells, baculovirus (Bac-to-Bac, Invitrogen)
Assay: Aurora A DELFIA Kinase Assay
Type: biochemical
Settings: mouse Aurora A, 250 μM ATP; threshold less than or equal to 100 nM; read-out: IC50
Source text: Recombinant mouse Aurora A with an amino-terminus hexahistidine tag (His-Aurora A) was expressed using a standard baculovirus vector and insect cell expression system (Bac-to-Bac®, Invitrogen).
Soluble, recombinant mouse Aurora A was purified from insect cells using Ni-NTA agarose (Qiagen) as described by the manufacturer and further purified over an S75 size exclusion column (Amersham Pharmacia Biotech).
Aurora A DELFIA® Kinase Assay
The enzymatic reaction mixture, with and without Aurora inhibitors, was incubated for 15 minutes at room temperature before termination with 100 μL of stop buffer (1% BSA, 0.05% Surfact-AMPS-20, and 100 mM EDTA). A total of 100 μL of the enzyme reaction mixture was transferred to wells of a Neutravidin-coated 96-well plate (Pierce) and incubated at room temperature for 30 minutes. The wells were washed with wash buffer (25 mM Tris, 150 mM sodium chloride, and 0.1% Tween 20) and incubated for 1 hour with 100 μL of antibody reaction mixture containing 1% BSA, 0.05% Surfact-AMPS-20, anti-phospho-PKA rabbit polyclonal antibody (1:2000, New England Biolabs), and europium labeled anti-rabbit IgG (1:2000, Perkin Elmer). The wells were washed and then the bound europium was liberated using 100 μL of Enhancement Solution (Perkin Elmer). Quantification of europium was done using a Wallac™ EnVision (Perkin Elmer).

T1 sequence (P97477 whole entry): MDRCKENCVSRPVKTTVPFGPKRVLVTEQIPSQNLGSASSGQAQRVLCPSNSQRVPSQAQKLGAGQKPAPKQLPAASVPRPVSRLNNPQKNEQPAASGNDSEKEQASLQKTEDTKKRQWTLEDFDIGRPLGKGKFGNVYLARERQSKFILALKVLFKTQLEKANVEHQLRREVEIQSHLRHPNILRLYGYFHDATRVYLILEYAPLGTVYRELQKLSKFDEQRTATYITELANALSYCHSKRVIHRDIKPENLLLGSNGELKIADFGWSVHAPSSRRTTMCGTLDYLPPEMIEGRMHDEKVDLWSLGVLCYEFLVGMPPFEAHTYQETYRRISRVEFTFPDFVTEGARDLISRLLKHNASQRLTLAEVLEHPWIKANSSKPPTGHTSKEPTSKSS

IC50, ≤ 100 nM:
O=C(NCCN1CCOCC1)c1ccc(Nc2ncc3c(n2)-c2ccc(Cl)cc2C(c2ccccc2Cl)=NC3)cc1 [Compound I-30, 4-[9-Chloro-7-(2-chloro-phenyl)-5H-benzo[c]pyrimido[4,5-e]azepin-2-ylamino]-N-(2-morpholin-4-yl-ethyl)-benzamide]
Cc1ccccc1C1=NCc2cnc(Nc3ccc(C(=O)NCCN4CCOCC4)cc3)nc2-c2ccc(Cl)cc21 [Compound I-31, 4-(9-Chloro-7-o-tolyl-5H-benzo[c]pyrimido[4,5-e]azepin-2-ylamino)-N-(2-morpholin-4-yl-ethyl)-benzamide]
COc1ccccc1C1=NCc2cnc(Nc3ccc(C(=O)NCCCN4CCOCC4)cc3)nc2-c2ccc(Cl)cc21 [Compound I-32, 4-[9-Chloro-7-(2-methoxy-phenyl)-5H-benzo[c]pyrimido[4,5-e]azepin-2-ylamino]-N-(3-morpholin-4-yl-propyl)-benzamide]
O=C(O)c1ccc(Nc2ncc3c(n2)-c2ccc(Cl)cc2C(c2ccccc2F)=NC3)cc1 [Compound I-52, 4-[9-Chloro-7-(2-fluoro-phenyl)-5H-benzo[c]pyrimido[4,5-e]azepin-2-ylamino]-benzoic acid]
O=C(O)c1ccc(Nc2ncc3c(n2)-c2ccc(Cl)cc2C(c2ccccc2Cl)=NC3)cc1 [Compound I-53, 4-[9-Chloro-7-(2-chloro-phenyl)-5H-benzo[c]pyrimido[4,5-e]azepin-2-ylamino]-benzoic acid]
Cc1ccccc1C1=NCc2cnc(Nc3ccc(C(=O)O)cc3)nc2-c2ccc(Cl)cc21 [Compound I-54, 4-(9-Chloro-7-o-tolyl-5H-benzo[c]pyrimido[4,5-e]azepin-2-ylamino) -benzoic acid]
COc1ccccc1C1=NCc2cnc(Nc3ccc(C(=O)O)cc3)nc2-c2ccc(Cl)cc21 [Compound I-55, 4-[9-Chloro-7-(2-methoxy-phenyl)-5H-benzo[c]pyrimido[4,5-e]azepin-2-ylamino]-benzoic acid]
O=C(O)c1ccc(Nc2ncc3c(n2)-c2ccc(F)cc2C(c2ccccc2F)=NC3)cc1 [Compound I-57, 4-[9-Fluoro-7-(2-fluoro-phenyl)-5H-benzo[c]pyrimido[4,5-e]azepin-2-ylamino]-benzoic acid]
Cc1ccc2c(c1)C(c1ccccc1F)=NCc1cnc(Nc3ccc(C(=O)O)cc3)nc1-2 [Compound I-58, 4-[7-(2-Fluoro-phenyl)-9-methyl-5H-benzo[c]pyrimido[4,5-e]azepin-2-ylamino]-benzoic acid]
NC(=O)c1ccc(Nc2ncc3c(n2)-c2ccc(Cl)cc2C(c2ccccc2Cl)=NC3)cc1 [Compound I-63, 4-[9-Chloro-7-(2-chloro-phenyl)-5H-benzo[c]pyrimido[4,5-e]azepin-2-ylamino]-benzamide]
O=C(O)Cc1cccc(Nc2ncc3c(n2)-c2ccc(Cl)cc2C(c2ccccc2Cl)=NC3)c1 [Compound I-65, {3-[9-Chloro-7-(2-chloro-phenyl)-5H-benzo[c]pyrimido[4,5-e]azepin-2-ylamino]-phenyl}-acetic acid]
NC(=O)Cc1cccc(Nc2ncc3c(n2)-c2ccc(Cl)cc2C(c2ccccc2Cl)=NC3)c1 [Compound I-66, 2-{3-[9-Chloro-7-(2-chloro-phenyl)-5H-benzo[c]pyrimido[4,5-e]azepin-2-ylamino]-phenyl}-acetamide]
O=S(=O)(O)c1ccc(Nc2ncc3c(n2)-c2ccc(Cl)cc2C(c2ccccc2F)=NC3)cc1 [Compound I-67, 4-[9-Chloro-7-(2-fluoro-phenyl)-5H-benzo[c]pyrimido[4,5-e]azepin-2-ylamino]-benzenesulfonic acid]
Cc1cc(NS(=O)(=O)c2ccc(Nc3ncc4c(n3)-c3ccc(Cl)cc3C(c3ccccc3Cl)=NC4)cc2)no1 [Compound I-69, 4-[9-Chloro-7-(2-chloro-phenyl)-5H-benzo[c]pyrimido[4,5-e]azepin-2-ylamino]-N-(5-methyl-isoxazol-3-yl)-benzenesulfonamide]
COc1ccc(Nc2ncc3c(n2)-c2ccc(Cl)cc2C(c2ccccc2Cl)=NC3)cc1OC [Compound I-73, [9-Chloro-7-(2-chloro-phenyl)-5H-benzo[c]pyrimido[4,5-e]azepin-2-yl]-(3,4-dimethoxy-phenyl)-amine]
O=C(O)c1ccc(Nc2ncc3c(n2)-c2ccc(Cl)cc2C(c2ccccc2Cl)=NC3)cc1O [Compound I-86, 4-[9-Chloro-7-(2-chloro-phenyl)-5H-benzo[c]pyrimido[4,5-e]azepin-2-ylamino]-2-hydroxy-benzoic acid]
COc1ccc2c(c1)C(c1ccccc1F)=NCc1cnc(Nc3ccc(C(=O)N4CCC(N(C)C)C4)cc3)nc1-2 (stereo not shown) [Compound I-93, (3-Dimethylamino-pyrrolidin-1-yl)-{4-[7-(2-fluoro-phenyl)-9-methoxy-5H-benzo[c]pyrimido[4,5-e]azepin-2-ylamino]-phenyl}-methanone]
CN(C)C1CN(C(=O)c2ccc(Nc3ncc4c(n3)-c3ccc(Cl)cc3C(c3ccccc3F)=NC4)cc2)C1 [Compound I-98, {4-[9-Chloro-7-(2-fluoro-phenyl)-5H-benzo[c]pyrimido[4,5-e]azepin-2-ylamino]-phenyl}-(3-dimethylamino-azetidin-1-yl)-methanone]
CN1CCC(N(C)C(=O)c2ccc(Nc3ncc4c(n3)-c3ccc(Cl)cc3C(c3ccccc3F)=NC4)cc2)C1 (stereo not shown) [Compound I-99, 4-[9-Chloro-7-(2-fluoro-phenyl)-5H-benzo[c]pyrimido[4,5-e]azepin-2-ylamino]-N-methyl-N-(1-methyl-pyrrolidin-3-yl)-benzamide]
CN(C)C1CCN(C(=O)c2ccc(Nc3ncc4c(n3)-c3ccc(Cl)cc3C(c3ccccc3F)=NC4)cc2)C1 (stereo not shown) [Compound I-100, {4-[9-Chloro-7-(2-fluoro-phenyl)-5H-benzo[c]pyrimido[4,5-e]azepin-2-ylamino]-phenyl}-(3-dimethylamino-pyrrolidin-1-yl)-methanone]
CNC1CCN(C(=O)c2ccc(Nc3ncc4c(n3)-c3ccc(Cl)cc3C(c3ccccc3F)=NC4)cc2)C1 (stereo not shown) [Compound I-102, {4-[9-Chloro-7-(2-fluoro-phenyl)-5H-benzo[c]pyrimido[4,5-e]azepin-2-ylamino]-phenyl}-(3-methylamino-pyrrolidin-1-yl)-methanone]
NC1CCN(C(=O)c2ccc(Nc3ncc4c(n3)-c3ccc(Cl)cc3C(c3ccccc3F)=NC4)cc2)C1 (stereo not shown) [Compound I-103, (3-Amino-pyrrolidin-1-yl)-{4-[9-chloro-7-(2-fluoro-phenyl)-5H-benzo[c]pyrimido[4,5-e]azepin-2-ylamino]-phenyl}-methanone]
CC1CN(C(=O)c2ccc(Nc3ncc4c(n3)-c3ccc(Cl)cc3C(c3ccccc3F)=NC4)cc2)CC(C)N1 (stereo not shown) [Compound I-111, {4-[9-Chloro-7-(2-fluoro-phenyl)-5H-benzo[c]pyrimido[4,5-e]azepin-2-ylamino]-phenyl}-(3,5-dimethyl-piperazin-1-yl)-methanone]
O=C(O)C1CCCN1C(=O)c1ccc(Nc2ncc3c(n2)-c2ccc(Cl)cc2C(c2ccccc2F)=NC3)cc1 (stereo not shown) [Compound I-112, 1-{4-[9-Chloro-7-(2-fluoro-phenyl)-5H-benzo[c]pyrimido[4,5-e]azepin-2-ylamino]-benzoyl}-pyrrolidine-2-carboxylic acid]
CC1CN(C(=O)c2ccc(Nc3ncc4c(n3)-c3ccc(Cl)cc3C(c3ccccc3F)=NC4)cc2)CCN1 (stereo not shown) [Compound I-113, {4-[9-Chloro-7-(2-fluoro-phenyl)-5H-benzo[c]pyrimido[4,5-e]azepin-2-ylamino]-phenyl}-(3-methyl-piperazin-1-yl)-methanone]
CN(CCCN)C(=O)c1ccc(Nc2ncc3c(n2)-c2ccc(Cl)cc2C(c2ccccc2F)=NC3)cc1 [Compound I-117, N-(3-Amino-propyl)-4-[9-chloro-7-(2-fluoro-phenyl)-5H-benzo[c]pyrimido[4,5-e]azepin-2-ylamino]-N-methyl-benzamide]
CN1CCC(N(C)C(=O)c2ccc(Nc3ncc4c(n3)-c3ccc(Cl)cc3C(c3ccccc3F)=NC4)cc2)CC1 [Compound I-128, 4-[9-Chloro-7-(2-fluoro-phenyl)-5H-benzo[c]pyrimido[4,5-e]azepin-2-ylamino]-N-methyl-N-(1-methyl-piperidin-4-yl)-benzamide]
CNCCCNC(=O)c1ccc(Nc2ncc3c(n2)-c2ccc(Cl)cc2C(c2ccccc2F)=NC3)cc1 [Compound I-130, 4-[9-Chloro-7-(2-fluoro-phenyl)-5H-benzo[c]pyrimido[4,5-e]azepin-2-ylamino]-N-(3-methylamino-propyl)-benzamide]

— patent US9102678B2, “Compounds and methods for inhibiting mitotic progression” (Millennium Pharmaceuticals, Inc., priority 2004, dated 2015)
